Results from patent US20020174455A1, “Sustained totipotent culture of selected monocot genera” (priority 2001, published 2002).

Tests used:
A. donax explants = assay: Phosphinothricin selection of explants with or without Agrobacterium tumefaciens cocultivation (Example 3); type: cell-based, Arundo donax L.; conditions: 10 mg/l
Method: Cross-sectional segment of immature A. donax inflorescence were prepared and cultivated as described in Example 2. The totipotent tissue was cocultivated with Agrobacterium tumefaciens carrying plasmid pMSF3022, which carried the bar gene for positive selection in plant cells. The gene confers resistance to the antibiotic/herbicide phosphinothricin.
Cocultivation was carried out in 6 ml. of liquid primary culture medium for four days in the dark at room temperature. Explants were then rinsed with liquid medium and placed on solid selective and non-selective control medium containing the antibiotic/herbicide phosphinothricine at 10 mg/l. All medium contained tidarcillin at 400 mg/l to eliminate residual A. tumefaciens. Controls includes explants incubated without A. tumefaciens. […] This can be contrasted with control explants (which were not contacted with A. tumefaciens) that were killed by 10 mg/l of phosphinothricin (FIG. 3A). Also shown are control explants that have developed callus in the absence of phosphinothricin (FIG. 3B), and cocultivated explants that have developed callus in the absence of phosphinothricin (FIG. 3D).

[1] = tested on: cloned A. donax plants (roots); assay: Trichloroethene challenge of cloned plants in phytoreactor (Example 4); type: in vivo, Arundo donax L.; conditions: 0.25 mM in hydroponic solution; after a recovery period of 3 to 4 weeks
Method: Sustained titopotent cultures of A donax were grown as described in Example 2, and cloned plants derived from the titopotent tissues were established in a standard liquid hydroponic solution in plastic tubs (Shown in FIG. 4 A). In one phytoreactor tub, trichloroethene (trichloroethylene) was added to a concentration of 0.25 mM. This was believed to be a high concentration of the organic material, because the allowable EPA concentration is 0.005 mg/l.

Compound | effect on control explants (not contacted with A. tumefaciens) (A. donax explants) | state of roots of challenged plants [1]
CP(=O)(O)CC[C@H](N)C(=O)O [phosphinothricin] | killed | 
ClC=C(Cl)Cl [trichloroethene] |  | fully recovered
